Measured values as given in ChEMBL document CHEMBL1949494, “SAR of α7 nicotinic receptor agonists derived from tilorone: exploration of a novel nicotinic pharmacophore” (Bioorg Med Chem Lett, 2012).

How the values were obtained:
[1] = molecular target: Neuronal acetylcholine receptor subunit alpha-7 (Rattus norvegicus, UniProt Q05941); assay: Displacement of [3H]methyllylcaconitine from alpha7 nAChR in rat brain; type: tissue-based
[2] = molecular target: Neuronal acetylcholine receptor subunit alpha-7 (Rattus norvegicus) (UniProt Q05941); assay: Ratio of tilorone Ki to compound Ki for alpha7 nAChR in rat brain; type: tissue-based
Chain of Neuronal acetylcholine receptor subunit alpha-7 (Rattus norvegicus) (Q05941 whole entry): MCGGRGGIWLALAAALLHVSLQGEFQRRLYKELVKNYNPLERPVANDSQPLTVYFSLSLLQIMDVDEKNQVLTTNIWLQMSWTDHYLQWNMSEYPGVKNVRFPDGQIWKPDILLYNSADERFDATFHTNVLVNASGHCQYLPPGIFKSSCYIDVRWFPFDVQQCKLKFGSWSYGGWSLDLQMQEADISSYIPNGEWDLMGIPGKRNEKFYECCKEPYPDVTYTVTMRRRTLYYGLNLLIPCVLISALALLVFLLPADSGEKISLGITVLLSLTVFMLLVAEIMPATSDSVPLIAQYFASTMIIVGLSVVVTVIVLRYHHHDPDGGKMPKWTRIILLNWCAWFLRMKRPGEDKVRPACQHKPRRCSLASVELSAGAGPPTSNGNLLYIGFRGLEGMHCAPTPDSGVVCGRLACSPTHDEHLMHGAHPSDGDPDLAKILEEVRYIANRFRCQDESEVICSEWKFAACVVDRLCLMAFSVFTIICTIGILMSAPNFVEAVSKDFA

[3] = molecular target: T1, Neuronal acetylcholine receptor subunit alpha-7 (Homo sapiens, UniProt P36544); assay: Agonist activity at human recombinant alpha7 nAChR expressed in xenopus oocytes by patch clamp assay relative to acetylcholine; type: functional, cell-based; settings: Oocyte
T1 sequence (P36544 whole entry): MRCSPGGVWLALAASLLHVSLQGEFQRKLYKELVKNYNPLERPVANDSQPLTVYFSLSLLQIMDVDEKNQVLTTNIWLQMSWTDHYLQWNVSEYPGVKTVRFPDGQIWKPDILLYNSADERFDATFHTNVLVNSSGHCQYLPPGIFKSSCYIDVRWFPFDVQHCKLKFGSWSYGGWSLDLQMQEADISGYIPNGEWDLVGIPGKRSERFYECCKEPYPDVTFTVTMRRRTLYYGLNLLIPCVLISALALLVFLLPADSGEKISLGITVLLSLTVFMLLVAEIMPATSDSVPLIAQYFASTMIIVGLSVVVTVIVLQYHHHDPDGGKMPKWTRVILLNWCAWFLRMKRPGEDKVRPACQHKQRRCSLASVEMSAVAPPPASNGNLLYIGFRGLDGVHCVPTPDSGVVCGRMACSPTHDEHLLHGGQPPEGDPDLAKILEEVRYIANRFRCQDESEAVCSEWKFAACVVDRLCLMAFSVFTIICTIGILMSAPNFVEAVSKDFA

[4] = Binding affinity to 5HT3
[5] = Ratio of drug level in brain to plasma in rat at 3 umol/kg, ip at 30 mins; type: ADME, organism-based; settings: read-out: BPR
[6] = molecular target: T2, Neuronal acetylcholine receptor; alpha4/beta2 (Homo sapiens, UniProt P17787+P43681); assay: Agonist activity at human recombinant alpha4beta2 nAChR in HEK293 cells by FLIPR assay; type: functional, cell-based
T2 sequence (P17787 whole entry): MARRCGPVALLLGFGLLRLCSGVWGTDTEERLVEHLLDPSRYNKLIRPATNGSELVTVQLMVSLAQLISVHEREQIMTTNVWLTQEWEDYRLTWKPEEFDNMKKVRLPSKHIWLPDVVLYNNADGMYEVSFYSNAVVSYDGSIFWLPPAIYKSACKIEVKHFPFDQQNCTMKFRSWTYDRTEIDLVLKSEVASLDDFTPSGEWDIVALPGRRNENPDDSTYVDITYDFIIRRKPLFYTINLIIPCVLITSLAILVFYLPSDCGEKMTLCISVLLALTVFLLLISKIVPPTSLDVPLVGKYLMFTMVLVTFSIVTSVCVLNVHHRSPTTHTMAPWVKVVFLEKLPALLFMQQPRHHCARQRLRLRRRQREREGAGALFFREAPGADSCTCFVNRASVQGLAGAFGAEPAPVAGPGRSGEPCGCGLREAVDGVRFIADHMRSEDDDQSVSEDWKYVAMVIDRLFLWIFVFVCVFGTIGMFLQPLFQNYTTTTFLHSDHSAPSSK
T2 sequence (P43681 whole entry): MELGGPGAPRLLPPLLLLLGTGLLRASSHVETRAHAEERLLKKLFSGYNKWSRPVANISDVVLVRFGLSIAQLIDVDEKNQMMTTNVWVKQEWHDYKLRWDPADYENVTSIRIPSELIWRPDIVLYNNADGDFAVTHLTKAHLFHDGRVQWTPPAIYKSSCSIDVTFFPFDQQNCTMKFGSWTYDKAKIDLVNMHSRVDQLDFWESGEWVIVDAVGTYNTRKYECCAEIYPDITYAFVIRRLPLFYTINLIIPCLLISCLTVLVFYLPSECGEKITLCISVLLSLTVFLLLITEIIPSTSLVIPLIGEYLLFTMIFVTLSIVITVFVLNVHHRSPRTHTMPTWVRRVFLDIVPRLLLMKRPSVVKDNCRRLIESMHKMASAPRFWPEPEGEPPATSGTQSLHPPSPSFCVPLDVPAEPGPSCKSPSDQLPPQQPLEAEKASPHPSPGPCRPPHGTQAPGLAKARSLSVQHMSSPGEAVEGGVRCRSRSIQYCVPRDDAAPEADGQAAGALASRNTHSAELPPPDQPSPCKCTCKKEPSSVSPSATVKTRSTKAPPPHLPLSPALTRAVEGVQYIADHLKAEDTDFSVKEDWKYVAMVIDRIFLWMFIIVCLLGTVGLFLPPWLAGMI

[7] = molecular target: T3, Neuronal acetylcholine receptor; alpha3/beta4 (Homo sapiens, UniProt P30926+P32297); assay: Agonist activity at human recombinant alpha3beta4 nAChR in HEK293 cells by FLIPR assay; type: functional, cell-based
T3 sequence (P30926 whole entry): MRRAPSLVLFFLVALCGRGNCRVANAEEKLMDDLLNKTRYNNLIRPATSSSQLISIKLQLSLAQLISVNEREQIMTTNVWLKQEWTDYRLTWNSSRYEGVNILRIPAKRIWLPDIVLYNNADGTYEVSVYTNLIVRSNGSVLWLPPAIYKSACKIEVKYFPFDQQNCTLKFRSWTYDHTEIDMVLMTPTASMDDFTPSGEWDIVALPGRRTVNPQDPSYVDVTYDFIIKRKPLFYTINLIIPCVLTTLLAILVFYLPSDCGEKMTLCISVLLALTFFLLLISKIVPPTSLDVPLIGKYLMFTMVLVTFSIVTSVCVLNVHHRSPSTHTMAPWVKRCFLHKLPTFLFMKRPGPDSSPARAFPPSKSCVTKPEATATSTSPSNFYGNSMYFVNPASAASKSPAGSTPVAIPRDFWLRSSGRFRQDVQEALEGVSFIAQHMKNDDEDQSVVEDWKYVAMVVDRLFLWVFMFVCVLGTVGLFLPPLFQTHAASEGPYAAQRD
T3 sequence (P32297 whole entry): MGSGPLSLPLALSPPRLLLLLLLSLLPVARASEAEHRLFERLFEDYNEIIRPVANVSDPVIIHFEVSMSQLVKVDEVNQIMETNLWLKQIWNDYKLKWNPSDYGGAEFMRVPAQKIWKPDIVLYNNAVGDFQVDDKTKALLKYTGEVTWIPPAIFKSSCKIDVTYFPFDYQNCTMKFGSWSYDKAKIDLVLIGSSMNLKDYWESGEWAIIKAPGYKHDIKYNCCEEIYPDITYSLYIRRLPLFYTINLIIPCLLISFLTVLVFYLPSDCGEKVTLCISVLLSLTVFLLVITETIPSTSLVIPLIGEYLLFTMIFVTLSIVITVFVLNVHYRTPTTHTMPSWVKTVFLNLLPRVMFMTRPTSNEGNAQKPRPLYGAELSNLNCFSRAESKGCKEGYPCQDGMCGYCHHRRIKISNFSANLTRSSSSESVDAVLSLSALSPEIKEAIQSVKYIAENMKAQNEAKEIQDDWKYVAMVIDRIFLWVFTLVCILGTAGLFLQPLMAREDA

[8] = Plasma concentration in rat at 3 umol/kg, ip at 30 mins; type: ADME, organism-based
[9] = molecular target: T1, Neuronal acetylcholine receptor subunit alpha-7; assay: Agonist activity at human recombinant alpha7 nAChR expressed in xenopus oocytes by patch clamp assay; type: functional, cell-based, Oocyte
[10] = molecular target: Voltage-gated inwardly rectifying potassium channel KCNH2 (Homo sapiens, UniProt Q12809); assay: Displacement of [3H]dofetilide from human ERG expressed in HEK293 cells
Chain of Voltage-gated inwardly rectifying potassium channel KCNH2 (Q12809 whole entry): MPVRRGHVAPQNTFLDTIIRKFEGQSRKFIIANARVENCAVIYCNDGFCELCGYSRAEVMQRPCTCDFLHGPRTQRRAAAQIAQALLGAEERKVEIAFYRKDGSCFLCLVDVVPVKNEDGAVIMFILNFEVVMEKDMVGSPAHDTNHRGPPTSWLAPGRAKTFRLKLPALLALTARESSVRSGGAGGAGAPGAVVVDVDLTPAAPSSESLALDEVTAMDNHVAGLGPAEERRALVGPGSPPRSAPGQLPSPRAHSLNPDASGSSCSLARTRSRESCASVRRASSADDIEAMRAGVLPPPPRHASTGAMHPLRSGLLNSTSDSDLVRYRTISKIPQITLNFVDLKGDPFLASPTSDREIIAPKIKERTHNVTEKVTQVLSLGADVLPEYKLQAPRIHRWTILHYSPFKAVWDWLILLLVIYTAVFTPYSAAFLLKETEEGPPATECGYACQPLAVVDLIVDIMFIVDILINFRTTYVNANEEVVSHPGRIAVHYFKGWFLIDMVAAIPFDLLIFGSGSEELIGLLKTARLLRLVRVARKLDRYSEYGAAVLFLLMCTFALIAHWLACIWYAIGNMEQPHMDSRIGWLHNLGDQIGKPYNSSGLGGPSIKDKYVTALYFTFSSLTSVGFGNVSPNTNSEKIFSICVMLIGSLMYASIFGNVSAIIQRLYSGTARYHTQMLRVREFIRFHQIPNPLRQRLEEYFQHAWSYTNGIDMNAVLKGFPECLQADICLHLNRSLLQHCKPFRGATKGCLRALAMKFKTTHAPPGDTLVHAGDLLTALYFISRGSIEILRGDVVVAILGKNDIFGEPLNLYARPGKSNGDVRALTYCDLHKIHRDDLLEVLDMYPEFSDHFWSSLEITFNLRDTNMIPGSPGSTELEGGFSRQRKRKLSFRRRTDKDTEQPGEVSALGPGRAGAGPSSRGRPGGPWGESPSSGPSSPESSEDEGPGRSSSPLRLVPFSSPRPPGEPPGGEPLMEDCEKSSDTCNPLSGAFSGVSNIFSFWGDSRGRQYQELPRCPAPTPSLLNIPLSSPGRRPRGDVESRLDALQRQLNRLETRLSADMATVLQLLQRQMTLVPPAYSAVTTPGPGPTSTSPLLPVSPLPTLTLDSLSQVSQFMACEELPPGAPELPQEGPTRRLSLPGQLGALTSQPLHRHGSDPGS

[11] = molecular target: T3, Neuronal acetylcholine receptor; alpha3/beta4; assay: Agonist activity at alpha3beta4 nAChR receptor by FLIPR assay; type: functional
[12] = molecular target: Muscarinic acetylcholine receptor; assay: Binding affinity to muscarinic receptor in rat brain; type: tissue-based
[13] = molecular target: Neuronal acetylcholine receptor; alpha3/beta2 (Homo sapiens, UniProt P17787+P32297); assay: Agonist activity at alpha3beta2 nAChR receptor by FLIPR assay; type: functional
Chain of Neuronal acetylcholine receptor; alpha3/beta2 (P17787 whole entry): as the sequence (P17787 whole entry) above
Chain of Neuronal acetylcholine receptor; alpha3/beta2 (P32297 whole entry): as the sequence (P32297 whole entry) above

[14] = molecular target: Neuronal acetylcholine receptor; alpha4/beta4 (Homo sapiens, UniProt P30926+P43681); assay: Agonist activity at alpha4beta4 nAChR receptor by FLIPR assay; type: functional
Chain of Neuronal acetylcholine receptor; alpha4/beta4 (P30926 whole entry): as the sequence (P30926 whole entry) above
Chain of Neuronal acetylcholine receptor; alpha4/beta4 (P43681 whole entry): as the sequence (P43681 whole entry) above

[15] = molecular target: T2, Neuronal acetylcholine receptor; alpha4/beta2; assay: Agonist activity at alpha4beta2 nAChR receptor by FLIPR assay; type: functional

Chain of Neuronal acetylcholine receptor subunit alpha-7 (Rattus norvegicus, UniProt Q05941) (Q05941 whole entry): as the sequence (Q05941 whole entry) above

SMILES	Ki [1] [µM]	other results
CCN(CC)CCOc1ccc(-c2ccc(OCCN(CC)CC)cc2)cc1	> 1000	–
CN1C[C@H]2CN(c3ccc4c(c3)C(=O)c3ccccc3-4)C[C@H]21	0.0059	Ratio Ki [2]: 10
CN1CC[C@@H]1COc1ccc2c(c1)C(=O)c1cc(OC[C@H]3CCN3C)ccc1-2	0.0043	–
CN1CC2CN(c3ccc4oc5ccccc5c(=O)c4c3)CC2C1 (configuration not stated)	0.004	Emax [3]: 61%; Ki [4]: 0.1 µM; Kp at 0.5 h [5]: 48; EC50 [6]: > 100 µM; EC50 [7]: > 100 µM; concentration at 0.5 h [8]: 12.4 ng/mL; EC50 [9]: 2.2 µM
NCCOc1ccc2c(c1)C(=O)c1cc(OCCN)ccc1-2	15	–
CCN(CC)CCOc1ccc2ccc(OCCN(CC)CC)cc2c1	> 1000	–
c1ccc2c(c1)Cc1cc(O[C@@H]3CN4CCC3CC4)ccc1-2	0.34	–
O=S1(=O)c2ccccc2-c2ccc(N3CCN4CCC3CC4)cc21	2.3e-05	Emax [3]: < 5%; Ki [4]: 0.66 µM; Kp at 0.5 h [5]: 12; EC50 [6]: > 100 µM; Ki [10]: 0.47 µM; EC50 [7]: > 100 µM; concentration at 0.5 h [8]: 8.4 ng/mL; EC50 [9]: > 100 µM
CN1CCC[C@H]1COc1ccc2c(c1)C(=O)c1cc(OC[C@@H]3CCCN3C)ccc1-2	0.012	–
O=C1c2ccccc2-c2ccc(N3CCN4CCC3CC4)cc21	0.00028	–
O=C1c2ccccc2-c2ccc(O[C@@H]3CN4CCC3CC4)cc21	0.012	–
O=c1c2ccccc2oc2ccc(O[C@H]3CN4CCC3CC4)cc12	0.0087	–
O=C1c2cc(OCCN3CCCCC3)ccc2-c2ccc(OCCN3CCCCC3)cc21	4.2	–
O=C1c2cc(O[C@@H]3CN4CCC3CC4)ccc2-c2ccc(O[C@@H]3CN4CCC3CC4)cc21	0.0016	–
CN1CC2CN(c3ccc4c(c3)C(=O)c3cc(N5CC6CN(C)CC6C5)ccc3-4)CC2C1 (configuration not stated)	0.0012	–
CN1[C@@H]2CC[C@H]1C[C@H](Oc1ccc3c(c1)C(=O)c1cc(O[C@@H]4C[C@H]5CC[C@@H](C4)N5C)ccc1-3)C2	0.09	–
CN1CC2CN(c3ccc4c(c3)C(=O)c3ccccc3-4)CC2C1 (configuration not stated)	0.063	–
O=C1c2cc(OCCN3CCCC3)ccc2-c2ccc(OCCN3CCCC3)cc21	0.053	–
CN1C[C@H]2CN(c3ccc4c(c3)S(=O)(=O)c3ccccc3-4)C[C@H]21	0.023	–

SMILES	Ki [1] [µM]	other results
O=C1c2cc(N3C[C@@H]4CN[C@@H]4C3)ccc2-c2ccc(N3C[C@@H]4CN[C@@H]4C3)cc21	0.018	–
O=C1c2ccccc2-c2ccc(O[C@H]3CN4CCC3CC4)cc21	0.0032	–
CN1CC[C@@H](Oc2ccc3c(c2)C(=O)c2cc(O[C@@H]4CCN(C)C4)ccc2-3)C1	0.012	–
O=S1(=O)c2ccccc2-c2ccc(O[C@@H]3CN4CCC3CC4)cc21	0.028	–
CC(C)N(CCOc1ccc2c(c1)C(=O)c1cc(OCCN(C(C)C)C(C)C)ccc1-2)C(C)C	1.3	–
O=C1c2cc(O[C@H]3CN4CCC3CC4)ccc2-c2ccc(O[C@H]3CN4CCC3CC4)cc21	0.00058	–
c1ccc2c(c1)Cc1cc(O[C@H]3CN4CCC3CC4)ccc1-2	0.11	–
CN1CC2CN(c3ccc4c(c3)C(=O)c3cc(N)ccc3-4)CC2C1 (configuration not stated)	0.00065	–
CCN(CC)CCOc1cccc(C(=O)c2cccc(OCCN(CC)CC)c2)c1	68	–
O=C1c2cc(N3CC4CNCC4C3)ccc2-c2ccc(N3CC4CNCC4C3)cc21 (configuration not stated)	0.00031	–
CN1CCN(c2ccc3c(c2)C(=O)c2cc(N4CCN(C)CC4)ccc2-3)CC1	0.14	–
O=S1(=O)c2ccccc2-c2ccc(O[C@H]3CN4CCC3CC4)cc21	0.0039	–
CN1CCCN(c2ccc3c(c2)C(=O)c2cc(N4CCCN(C)CC4)ccc2-3)CC1	0.0065	Ratio Ki [2]: 10
O=c1c2ccccc2oc2ccc(O[C@@H]3CN4CCC3CC4)cc12	0.0088	–
CN1CCC[C@@H]1COc1ccc2c(c1)C(=O)c1cc(OC[C@H]3CCCN3C)ccc1-2	0.0076	–
O=C1c2cc(O[C@@H]3CCNC3)ccc2-c2ccc(O[C@@H]3CCNC3)cc21	0.071	–
CN1C[C@H]2CN(c3ccc4c(c3)C(=O)c3cc(N5C[C@@H]6CN(C)[C@@H]6C5)ccc3-4)C[C@H]21	9.2e-05	–
CN1CCC(Oc2ccc3c(c2)C(=O)c2cc(OC4CCN(C)CC4)ccc2-3)CC1	0.037	–

Further lines, with some results ahead:

Ki [1] [µM]	SMILES	other results
0.05	CN(C)CCOc1ccc2c(c1)C(=O)c1cc(OCCN(C)C)ccc1-2	–
1.6	CCN(CC)CCOc1ccc2c(c1)sc1cc(OCCN(CC)CC)ccc12	–
0.056	CCN(CC)CCOc1ccc2c(c1)C(=O)c1cc(OCCN(CC)CC)ccc1-2 [TILORONE]	EC50 [11]: > 10 µM; Emax [3]: 67%; Ki [12]: 0.42 µM; EC50 [13]: > 10 µM; EC50 [14]: > 10 µM; EC50 [15]: > 10 µM; EC50 [9]: 2.5 µM
0.95	CCNCCOc1ccc2c(c1)C(=O)c1cc(OCCNCC)ccc1-2	–
0.77	CCN(CC)CCOc1ccc2c(c1)Cc1cc(OCCN(CC)CC)ccc1-2	–
0.087	CCN(CC)CC#Cc1ccc2c(c1)C(=O)c1cc(C#CCN(CC)CC)ccc1-2	–
0.44	CCN(CC)CCOc1ccc2oc3ccc(OCCN(CC)CC)cc3c(=O)c2c1	–
0.23	CCN(CC)CCOc1ccc2c(c1)S(=O)(=O)c1cc(OCCN(CC)CC)ccc1-2	–
0.83	CCN(CC)CCCOc1ccc2c(c1)C(=O)c1cc(OCCCN(CC)CC)ccc1-2	–
0.69	CCN(CC)CCOc1ccc2c3ccc(OCCN(CC)CC)cc3[s+]([O-])c2c1	–
0.27	CCN(CC)CCOc1ccc2c(c1)C(O)c1cc(OCCN(CC)CC)ccc1-2	–
1.8	CCN(CC)CCOc1ccc2c(c1)C(=O)c1ccccc1-2	–
0.015	CC[N+](C)(CC)CCOc1ccc2c(c1)C(=O)c1cc(OCC[N+](C)(CC)CC)ccc1-2	–
2.9	CCN(CC)CCCc1ccc2c(c1)C(=O)c1cc(CCCN(CC)CC)ccc1-2	–
2.3	CCN(CC)CCCCOc1ccc2c(c1)C(=O)c1cc(OCCCCN(CC)CC)ccc1-2	–
2	CCN(CC)CCOc1ccc2c(c1)C(=O)c1cc(OCCOC)ccc1-2	–
